The values that follow come from patent US8710184B2, “Motilin-like peptide compound having transmucosal absorbability imparted thereto” (Daiichi Sankyo Company, Limited, priority 2009, dated 2014).

Where “and” joins values, the source holds several entries; their conditions need not be identical. Identical values can stand only once. Starred links: 1 amine or outer side, 2 acyl side, 3 side chain; linkers in the order of their positions; H or OH if unused. Non-standard residues stand in square brackets, D forms with d. Residues, ends and D or L forms follow the SMILES beside them. No end group written: not given here. β3hPhg = O=C(C[C@@H](N[*:1])c1ccccc1)[*:2]; Sar = CNCC(=O)O

Data set [1] deals with conscious dog's gastrointestinal tract. Kind of data set: Fasting IMC inducing activity in conscious dogs (force transducers). It is filed as in vivo. To be noted: for IMC Inducing activity: fasting period, intravenous, 0.1 μg/kg. An excerpt: More specifically, dogs under anesthesia were subjected to a surgical operation in which force transducers were sutured to the serous membranes of the gastric antrum, duodenum, jejunum and ileum along the ring-shaped muscle and, thereafter, the strain from each transducer was sent to a recorder via an amplifier.

Data set [2] can be described thus: Pharmacokinetic experiment on pulmonarily administered native motilin and motilin derivative compounds in rats (RIA). In kind it is in vivo, rat. The settings on record: for Cmax / AUC / BA: 25 μg/rat; for AUC: trapezoidal method; for BA: relative to AUC of intravenous native motilin. As to the method: As test animals, 7- to 10-wk old male SD rats (purchased from CHARLES RIVER LABORATORIES JAPAN, INC.) that consisted of 3 rats per a group were subjected to the following experiment. Native motilin or motilin derivative compounds were dissolved in an aqueous solution of 0.1 N acetic acid to prepare a solution at a concentration of 1 mg/mL and 25 μL of the solution was administered into the polyethylene tube through the trachea by means of an intratracheal liquid spraying device (MicroSprayer; product of Penn Century). […] In the measurement, the respective derivatives were used as standard substances to construct calibration curves for determining the plasma levels.
Using these values, bioavailability (BA (%)) was calculated by the following equation: BA(%)=[(AUC/Dose)/(AUC(motilin—iv)/Dose(motilin—iv))]×100 • AUC: AUC (ng·min/mL) after pulmonary administration • Dose: dose (μg/kg) in pulmonary administration • AUC (motilin_iv): AUC (ng·min/mL) after intravenous administration of native motilin • Dose (motilin_iv): dose (μg/kg) in intravenous administration of native motilin.

A short description of another data set: in vivo. To be noted: male, cynomolgus monkey, iv, 10 ug/kg. How it is done:
In this example, native motilin and a motilin derivative compound were administered intravenously to monkeys and their plasma concentrations were measured.
As test animals, 8- to 9-year old male cynomolgus monkeys (N=1-2 per group) were subjected to the following experiment. Native motilin and compound 2 were each dissolved in a 5% mannitol solution to prepare solutions at a concentration of 100 μg/mL; the solutions were administered to the animals at a dose of 0.1 mL/kg through the right cephalic vein by means of a syringe and a needle (both being products of TERUMO). Before administration and 5, 10, 15, 20, 30 and 60 minutes after administration, blood was sampled through the left cephalic vein.
To the collected sample, a 10% EDTA.2Na.2H2O solution was immediately added at a volume ratio of 1:100 and the plasma was separated by centrifugation. The plasma was immediately mixed with a 5,000 IU/mL aprotinin solution at a volume ratio of 1:10 and stored at −80° C. until use in measurement.
Measurement of the plasma concentrations of native motilin and the motilin derivative compound was conducted by the radioimmunoassay (RIA) technique using an anti-motilin antibody. Stated more specifically, after adding an anti-motilin antibody to the plasma sample, [^125I-Tyr7] motilin was added for a competitive reaction to take place. By subsequent addition of a secondary antibody, the motilin binding to the anti-motilin antibody was precipitated and after separating the supernatant, the radioactivity in the precipitating faction was measured with a γ-counter (product of PerkinElmer).
From the obtained profiles for the plasma concentrations of native motilin and the motilin derivative compound, the plasma concentration at time zero (C0) and the area under curve for plasma concentrations (AUC) were calculated as pharmacokinetic parameters; C0 was determined by extrapolation and AUC by the trapezoidal method.

Data set [3] in a line: Pharmacokinetic experiment on intravenously administered native motilin in rats (RIA). To be noted: male, SD, rat, plasma, 100 ug/kg, intravenous, 100 μg/kg. In kind it is in vivo. How it is done:
Native motilin was administered intravenously to rats and its plasma levels were measured.
As test animals, 7-wk old male SD rats (purchased from CHARLES RIVER LABORATORIES JAPAN, INC.) that consisted of 3 rats per a group were subjected to the following experiment. Native motilin was dissolved in a 5% mannitol solution to prepare a solution at a concentration of 100 μg/mL and this solution was administered to each rat at a dose of 1 mL/kg through the tail vein by means of a syringe and a 26G needle (both being products of TERUMO).

Data set [4] in a line: Pharmacokinetic experiment on intranasally administered native motilin and a motilin derivative compound in monkeys (RIA). To be noted: intranasal administration; for BA: relative to intravenous AUC of each compound; for AUC / Cmax: male, cynomolgus monkey, plasma, inhaled or intranasal, mean for N = 1-2. In kind it is in vivo, cynomolgus monkey. As to the method: This example was conducted with a view to measuring by RIA the changes that occurred in monkeys in terms of the plasma concentrations of transnasally administered native motilin and a motilin derivative compound.
In the experiment, 10- to 11-year old male cynomolgus monkeys were used. Native motilin or compound 2 and microcrystalline cellulose were mixed at a ratio of 1:40 to prepare intranasal preparations, 20-mg portions of which were filled into gelatin capsules. Each capsule was administered into the right nasal cavity of each animal by means of an intranasal administration device (product of Hitachi Automotive Systems, Ltd.). Before administration and 5, 10, 15, 20, 30, 60, 120 and 180 minutes after administration, blood was sampled through the cephalic vein. The collected blood sample was treated as in Comparative Example 2 to separate plasma and the concentrations of native motilin and the motilin derivative compound in plasma were measured by RIA. In the measurement, the respective derivatives were used as standard substances to construct calibration curves for determining the plasma levels.
Using these values, bioavailability (BA (%)) was calculated by the following equation: BA(%)=[(AUC/Dose)/(AUC(iv)/Dose(iv))]×100 • AUC: AUC (ng·min/mL) after intranasal administration • Dose: dose (μg/kg) in intranasal administration • AUC (iv): AUC (ng·min/mL) after intravenous administration of each compound • Dose (iv): dose (μg/kg) in intravenous administration of each compound.

Data set [5] can be described thus: HPLC fractionation and RIA of rat plasma after pulmonary administration (unaltered form vs metabolites). In kind it is in vivo. As to the method:
This example was conducted with a view to measuring by RIA the changes that occurred in rats in terms of the plasma concentrations of pulmonarily administered native motilin and motilin derivative compounds. When the RIA technique is applied, all substances that react with the anti-motilin antibody are detected, so aside from unaltered forms, metabolites that react with the antibody are also likely to be detected.
To be more specific, a polyethylene tube (PE-240; product of Clay Adams) was inserted into the trachea of 7-wk old male SD rats (purchased from CHARLES RIVER LABORATORIES JAPAN, INC.); native motilin or compound 2 (MT114) was dissolved in an aqueous solution of 0.1 N acetic acid to prepare a solution at a concentration of 1 mg/mL and 25 μL of the solution was administered into the polyethylene tube through the trachea by means of an intratracheal liquid spraying device (MicroSprayer; product of Penn Century). Five minutes after the administration, blood was sampled through the abdominal aorta and treated as in Comparative Example 1 to separate plasma. […] For each sample, an eluate was sampled at one-minute intervals from just after the sample injection to a 40-minute after sample injection and the immunological activity in each fraction was measured by RIA.

Data set [6] in a line: Motilin degradation experiment using a lung homogenate supernatant. In kind it is in vitro ADME. An excerpt:
To solve this problem, the present inventors first assumed that motilin might be degraded after noninvasive transmucosal administration and performed a motilin degradation experiment using a lung homogenate supernatant.

The conditions of data set [7]: Non-Patent Document 18; cited from earlier work.
[8] abbreviates: in vivo, pulmonary administration.
Setting [9] is: male, SD, plasma, other: pulmonary administration (intratracheal liquid spray).
Setting [10] is: male, SD, plasma, inhaled or intranasal, 25 ug/animal, pulmonary administration.

Turning to `CC[C@H](C)[C@H](NC(=O)CN(C)C(=O)[C@@H](NC(=O)C[C@@H](N)c1ccccc1)C(C)C)C(=O)N[C@@H](Cc1ccccc1)C(=O)N[C@H](C(=O)N[C@@H](Cc1ccc(O)cc1)C(=O)NCC(=O)N[C@@H](CCC(=O)O)C(=O)N[C@@H](CC(C)C)C(=O)N[C@@H](CCC(N)=O)C(=O)N[C@@H](CCCNC(=N)N)C(=O)N[C@@H](CCSC)C(=O)N[C@@H](CCC(N)=O)C(=O)N[C@@H](CCC(=O)O)C(=O)N[C@@H](CCCCN)C(=O)N[C@@H](CCC(=O)O)C(=O)N[C@@H](CCCNC(=N)N)C(=O)N1CCC[C@H]1C(=O)N[C@@H](CCCCN)C(=O)N1CCC[C@H]1C(=O)N[C@@H](CCC(N)=O)C(=O)O)[C@@H](C)O` [Compound 10, Phg(C#CH2) Val Sar Ile Phe Thr Tyr Gly Glu Leu Gln Arg Met Gln Glu Lys Glu Arg Pro Lys Pro Gln] (β3hPhg-V[Sar]IFTYGELQRMQEKERPKPQ-OH; N-terminus and C-terminus assumed), in data set [1], the “IMC Inducing activity” value is “Positive”. Also, in data set [2] (setting [8]), the Cmax was found to be 6.1 ± 1.5 ng/mL and the AUC was 3.16 ng·h/mL. Moreover, in data set [2] (pulmonary administration), the BA worked out at 5.9 ± 0.8%.

`CC[C@H](C)[C@H](NC(=O)[C@@H]1CCCN1C(=O)[C@@H](NC(=O)[C@@H](N)Cc1ccccc1)C(C)C)C(=O)N[C@@H](Cc1ccccc1)C(=O)N[C@H](C(=O)N[C@@H](Cc1ccc(O)cc1)C(=O)NCC(=O)N[C@@H](CCC(=O)O)C(=O)N[C@@H](CC(C)C)C(=O)N[C@@H](CCC(N)=O)C(=O)N[C@@H](CCCNC(=N)N)C(=O)N[C@@H](CCSC)C(=O)N[C@@H](CCC(N)=O)C(=O)N[C@@H](CCC(=O)O)C(=O)N[C@@H](CCCCN)C(=O)N[C@@H](CCC(=O)O)C(=O)N[C@@H](CCCNC(=N)N)C(=O)N[C@@H](CC(N)=O)C(=O)N[C@@H](CCCCN)C(=O)NCC(=O)N[C@@H](CCC(N)=O)C(=O)O)[C@@H](C)O` [Native motilin, reference compound]: the AUC in the data set “in vivo” is 13.1 ng·h/mL; in data set [3] (trapezoidal method, read-out: area under curve for plasma concentrations (AUC) (converted)) it was 60 ng·h/mL; in data set [4] (0.49 mg/animal) it was 4.02 ng·h/mL; in data set [2] (setting [9]) it was 1.58 ng·h/mL. Besides, the C0 in “in vivo” was 233 ng/mL; in data set [3] (by extrapolation, read-out: plasma concentration at time zero (C0)), 1800 ng/mL. Besides, the “IMC Inducing activity” value in data set [1] is “Positive”. Besides, the “duration of contraction of the duodenum” value in data set [1] (intravenous 0.1 μg/kg, FIG. 1) was “about 10 minutes”. Moreover, in data set [1] (intravenous 0.1 μg/kg, FIG. 1), the “duration of contraction of the gastric antrum” value is “about 10 minutes”. Besides, the BA is recorded as 3.6% in data set [4]; 3.3 ± 0.1% in data set [2] (pulmonary administration); 3.3% in data set [2] (pulmonary administration, listed as native motilin). Further, the Cmax was 13.6 ng/mL in data set [4] (0.49 mg/animal) and 7.84 ± 0.98 ng/mL in data set [2] (setting [9]). Also, the “immunological activity peaks in HPLC fractions of plasma” value in data set [5] (rat, in vivo) is “detected only at the elution point corresponding to the administered compound (in unaltered form)”. Also, the “degradation in lung homogenate supernatant” value in data set [6] is reported as “found to be degraded”.

With FVPIFTYGELQRLQEKERNKPQ [Compound 2], the AUC in “in vivo” was 15.4 ng·h/mL; in data set [4], 6.02 ng·h/mL; in data set [2] (setting [10]), 5.84 ng·h/mL. Moreover, the C0 in “in vivo” was determined as 273 ng/mL. Besides, the “profile of plasma concentration compared with native motilin” value was “a high peak level” in data set [4] (FIG. 5) and “high peak levels” in data set [2] (pulmonary administration, FIG. 3). Besides, the BA in data set [4] is 5.1%; in data set [2] (pulmonary administration), 10.4% and 10.4 ± 4.3%. The Cmax in data set [4] is 23.5 ng/mL; in data set [2] (setting [10]) it was 26.6 ± 11.3 ng/mL. For the same compound, the “immunological activity peaks in HPLC fractions of plasma” value in data set [5] (rats, pulmonary administration, plasma 5 minutes after administration) was “detected only at the elution point corresponding to the administered compound (in unaltered form)”.

Turning to atilmotin, the half-life in plasma entry in data set [7] is “about 10 minutes”.
